pIC50: −log10 of the molar value.
Molecular target: EGFR (mouse) (UniProt P00533)
Assay: not given
Conditions: swiss 3t3 fibroblast

| Structure (SMILES) | pIC50 |
| --- | --- |
| Cn1c(SSc2c(C(=O)Nc3ccccc3)c3cccnc3n2C)c(C(=O)Nc2ccccc2)c2cccnc21 | < 4.60 |
| COc1ccc2c(C(=O)Nc3ccccc3)c(SSc3c(C(=O)Nc4ccccc4)c4ccc(OC)cc4n3C)n(C)c2c1 | < 4.00 |
| Cn1c(SSc2c(C(=O)Nc3ccccc3)c3ccccc3n2C)c(C(=O)Nc2ccccc2)c2ccccc21 | < 4.00 |
| COc1cccc2c(C(=O)Nc3ccccc3)c(SSc3c(C(=O)Nc4ccccc4)c4cccc(OC)c4n3C)n(C)c12 | < 4.00 |
| CN1C(=S)C(C(=O)Nc2ccccc2)c2ccccc21 (stereo not given) | < 4.00 |

Molecular target: EGFR (human) (UniProt P00533)
Assay: not given
Conditions: not given

EGFR (human), sequence (P00533 whole entry, looked up): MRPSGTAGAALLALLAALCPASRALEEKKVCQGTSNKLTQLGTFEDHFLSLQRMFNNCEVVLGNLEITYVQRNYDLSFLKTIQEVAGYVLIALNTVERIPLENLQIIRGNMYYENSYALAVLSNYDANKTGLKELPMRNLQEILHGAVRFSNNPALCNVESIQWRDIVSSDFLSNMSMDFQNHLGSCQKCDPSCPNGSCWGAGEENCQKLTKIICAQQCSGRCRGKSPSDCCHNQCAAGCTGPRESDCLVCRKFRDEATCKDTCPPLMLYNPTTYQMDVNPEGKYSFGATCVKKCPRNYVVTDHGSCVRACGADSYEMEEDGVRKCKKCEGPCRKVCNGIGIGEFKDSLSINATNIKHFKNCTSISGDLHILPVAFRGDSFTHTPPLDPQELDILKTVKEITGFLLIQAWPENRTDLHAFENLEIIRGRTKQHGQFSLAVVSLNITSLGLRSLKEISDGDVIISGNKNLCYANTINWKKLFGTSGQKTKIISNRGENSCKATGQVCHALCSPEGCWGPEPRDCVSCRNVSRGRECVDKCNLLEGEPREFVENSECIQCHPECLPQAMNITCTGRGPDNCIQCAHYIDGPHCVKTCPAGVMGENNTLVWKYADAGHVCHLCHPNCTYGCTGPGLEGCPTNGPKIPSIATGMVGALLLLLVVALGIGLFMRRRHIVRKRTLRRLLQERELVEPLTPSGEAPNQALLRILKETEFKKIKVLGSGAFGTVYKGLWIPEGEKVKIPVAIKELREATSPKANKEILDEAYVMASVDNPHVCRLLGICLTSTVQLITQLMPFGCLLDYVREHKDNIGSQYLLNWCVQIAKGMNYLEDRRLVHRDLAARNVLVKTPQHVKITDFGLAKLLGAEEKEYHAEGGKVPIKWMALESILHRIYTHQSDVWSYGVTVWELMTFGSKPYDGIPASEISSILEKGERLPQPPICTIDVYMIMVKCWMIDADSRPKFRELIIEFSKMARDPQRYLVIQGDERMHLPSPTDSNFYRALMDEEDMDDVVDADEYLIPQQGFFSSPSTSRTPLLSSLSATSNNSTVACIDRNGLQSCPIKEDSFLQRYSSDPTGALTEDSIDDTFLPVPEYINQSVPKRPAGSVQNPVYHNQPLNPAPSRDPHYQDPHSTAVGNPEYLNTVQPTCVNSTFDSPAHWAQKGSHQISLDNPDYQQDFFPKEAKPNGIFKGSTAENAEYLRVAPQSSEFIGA

| Structure (SMILES) | pIC50 |
| --- | --- |
| Cc1ccnc(NS(=O)(=O)c2ccc(Nc3nc(C)c4c(=O)[nH]c(NCc5ccccc5)nc4n3)cc2)n1 | 5.18 |
| Cc1ccnc(NS(=O)(=O)c2ccc(Nc3nc(C)c4c(=O)[nH]c(SCc5ccccc5)nc4n3)cc2)n1 | 5.11 |

The remaining lines, values ahead:

| pIC50 | Structure (SMILES) |
| --- | --- |
| 5.26 | Cc1ccnc(NS(=O)(=O)c2ccc(Nc3nc(-c4ccc(O)cc4O)c4c(=O)[nH]c(SCc5ccccc5)nc4n3)cc2)n1 |
| < 5.00 | Cc1ccnc(NS(=O)(=O)c2ccc(Nc3nc(C)c4c(=O)[nH]c(Nc5cccc(Cl)c5)nc4n3)cc2)n1 |
| 5.09 | Cc1ccnc(NS(=O)(=O)c2ccc(Nc3nc(C)c4c(=O)[nH]c(Nc5ccc(S(=O)(=O)O)cc5)nc4n3)cc2)n1 |

Molecular target: PIK3CD (Human) (UniProt O00329)
Assay: Assessment of PIK3CD Kinase Activity
Conditions: not given

PIK3CD (Human), sequence (O00329 whole entry, looked up): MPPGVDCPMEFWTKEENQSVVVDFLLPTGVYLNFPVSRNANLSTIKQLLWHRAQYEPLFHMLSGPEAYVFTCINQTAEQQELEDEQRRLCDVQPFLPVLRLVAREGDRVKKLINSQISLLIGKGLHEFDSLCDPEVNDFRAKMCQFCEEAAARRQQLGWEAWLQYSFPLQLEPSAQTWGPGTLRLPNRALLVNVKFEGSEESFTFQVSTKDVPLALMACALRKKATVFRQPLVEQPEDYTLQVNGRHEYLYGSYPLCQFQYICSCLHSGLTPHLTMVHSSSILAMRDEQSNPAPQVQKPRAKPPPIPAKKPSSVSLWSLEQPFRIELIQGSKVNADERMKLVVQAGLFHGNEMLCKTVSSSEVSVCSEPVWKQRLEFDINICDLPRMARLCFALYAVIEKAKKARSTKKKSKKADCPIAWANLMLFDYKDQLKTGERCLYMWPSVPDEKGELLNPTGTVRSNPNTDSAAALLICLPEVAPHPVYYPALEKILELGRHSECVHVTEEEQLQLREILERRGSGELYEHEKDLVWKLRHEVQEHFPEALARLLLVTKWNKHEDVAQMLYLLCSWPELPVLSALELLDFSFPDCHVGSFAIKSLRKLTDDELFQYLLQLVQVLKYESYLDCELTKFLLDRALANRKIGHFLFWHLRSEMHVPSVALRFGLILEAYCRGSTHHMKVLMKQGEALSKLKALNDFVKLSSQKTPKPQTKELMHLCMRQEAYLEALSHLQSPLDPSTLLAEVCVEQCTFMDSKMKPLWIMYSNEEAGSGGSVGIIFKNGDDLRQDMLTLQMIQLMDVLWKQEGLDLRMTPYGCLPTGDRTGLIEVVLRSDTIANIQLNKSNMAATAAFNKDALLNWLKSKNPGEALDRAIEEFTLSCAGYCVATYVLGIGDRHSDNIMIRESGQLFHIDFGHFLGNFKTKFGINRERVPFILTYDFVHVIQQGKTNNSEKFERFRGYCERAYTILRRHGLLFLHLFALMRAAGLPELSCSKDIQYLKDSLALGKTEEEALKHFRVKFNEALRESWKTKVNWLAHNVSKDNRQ

| pIC50 | Structure (SMILES) |
| --- | --- |
| 7.40 | Cc1c(Cn2ccn3c(=O)cc(C4C=COCC4)nc23)cccc1C(F)(F)F (stereo not given) |
| 7.03 | Nc1ncc(-c2cnc3ccc(-c4ccc(C(=O)N5CCN(Cc6ccccn6)CC5)cc4)nn23)cc1C(F)(F)F |
| 6.00 to 7.00 | CN1CC2CN(c3cnc4ncc(-c5ccc6oc(N)nc6c5)cc4n3)CC2C1 (stereo not given) |
| 6.57 | COCCn1c(Cc2nc(N3CCOCC3)cc(=O)[nH]2)nc2ccccc21 |

Molecular target: MAPK14 (human) (UniProt Q16539)
Assay: Inhibition of LPS Induced TNF-alpha Production in THP-1 Cells
Conditions: thp1

MAPK14 (human), sequence (Q16539 whole entry, looked up): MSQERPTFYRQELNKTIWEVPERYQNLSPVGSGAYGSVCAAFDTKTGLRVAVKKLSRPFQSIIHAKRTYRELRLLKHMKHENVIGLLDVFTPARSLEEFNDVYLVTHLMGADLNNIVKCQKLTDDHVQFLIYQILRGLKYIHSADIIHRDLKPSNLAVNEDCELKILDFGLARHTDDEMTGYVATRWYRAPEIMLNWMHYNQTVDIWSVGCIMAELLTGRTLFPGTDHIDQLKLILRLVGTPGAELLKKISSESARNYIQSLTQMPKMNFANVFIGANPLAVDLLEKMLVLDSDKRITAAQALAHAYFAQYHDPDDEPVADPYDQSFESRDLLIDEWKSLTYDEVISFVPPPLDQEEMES

| pIC50 | Structure (SMILES) |
| --- | --- |
| 5.89 | Cc1ccc(C(N)=O)cc1Nc1nc(N[C@H]2CCNC2)nc(N(C)C2CCCCC2)n1 |
| 6.49 | CCC(C)N(C)c1nc(Nc2cc(C(N)=O)ccc2C)nc(N[C@H]2CCNC2)n1 (stereo not given in full) |
| < 5.30 | Cc1ccc(C(N)=O)cc1Nc1nc(NCCc2ccc(F)cc2)nc(N[C@H]2CCNC2)n1 |

Molecular target: MAPK14 (murine)
Assay: Inhibition of MAPK14 Kinase Assay
Conditions: not given

| pIC50 | Structure (SMILES) |
| --- | --- |
| 6.64 | COc1ccc(C(=O)N2CCC(Cc3ccc(NC(=O)Nc4cc(C(C)(C)C)nn4-c4ccc(C)cc4)cc3)CC2)c(OC)c1 |
| 5.17 | COc1ccc(C(=O)N2C3CCC2CC(Cc2ccccc2NC(=O)Nc2cc(C(C)(C)C)nn2-c2ccc(C)cc2)C3)c(OC)c1 (stereo not given) |
| 6.30 | COc1ccc(C(=O)N2CCC(Cc3ccccc3NC(=O)Nc3cc(C(C)(C)C)nn3-c3ccc(C)cc3)CC2)c(OC)c1 |
| 5.93 | COc1ccc(C(=O)N2C3CCC2CC(Cc2ccc(NC(=O)Nc4cc(C(C)(C)C)nn4-c4ccc(C)cc4)cc2)C3)c(OC)c1 (stereo not given) |
| 6.67 | COc1ccc(C(=O)N2CCC(Cc3cccc(NC(=O)Nc4cc(C(C)(C)C)nn4-c4ccc(C)cc4)c3)CC2)c(OC)c1 |

Molecular target: PIK3CG (human) (UniProt P48736)
Assay: Assessment of PIK3CG Kinase Activity
Conditions: not given

| pIC50 | Structure (SMILES) |
| --- | --- |
| < 5.00 | COCCn1c(Cc2nc(N3CCOCC3)cc(=O)[nH]2)nc2ccccc21 |

Molecular target: MAPK14 (human) (UniProt Q16539)
Assay: Inhibition of MAPK14 Kinase Activity
Conditions: not given

| pIC50 | Structure (SMILES) |
| --- | --- |
| 6.60 | Cc1ccc(C(N)=O)cc1Nc1nc(N[C@H]2CCNC2)nc(N(C)C2CCCCC2)n1 |
| 7.55 | CCC(C)N(C)c1nc(Nc2cc(C(N)=O)ccc2C)nc(N[C@H]2CCNC2)n1 (stereo not given in full) |

Molecular target: EGFR (human) (UniProt P00533)
Assay: not given
Conditions: a431

| Structure (SMILES) | pIC50 |
| --- | --- |
| CC(C)(C)C(=O)Nc1nc(Nc2cccc(F)c2)c2c(n1)[nH]c1cccc(Cl)c12 | < 3.60 |
| Nc1nc(Nc2ccc(Cl)cc2)c2c(n1)[nH]c1cccc(Cl)c12 | 4.36 |

Now from value to compound:

| pIC50 | Structure (SMILES) |
| --- | --- |
| < 3.60 | CC(C)c1ccc(Nc2nc(NC(=O)C(C)(C)C)nc3[nH]c4cccc(Cl)c4c23)cc1 |
| 4.26 | CC(C)(C)C(=O)Nc1nc(Nc2ccc(Cl)cc2)c2c(n1)[nH]c1cccc(Cl)c12 |
| 3.78 | COc1cccc(Nc2nc(N)nc3[nH]c4cccc(Cl)c4c23)c1 |

Molecular target: EGFR (UniProt P00533)
Assay: not given
Conditions: not given

EGFR, sequence (P00533 whole entry, looked up): as the sequence (P00533 whole entry, looked up) above

| Structure (SMILES) | pIC50 |
| --- | --- |
| O=C1CNCCN(Cc2ccn3ncnc(Nc4ccc5c(cnn5Cc5cccc(F)c5)c4)c23)C1 | 7.11 |
| Cc1ccn2ncnc(Nc3ccc4c(cnn4Cc4cccc(F)c4)c3)c12 | 7.09 |
| COc1cn2ncnc(Nc3ccc4c(cnn4Cc4cccc(F)c4)c3)c2c1CN1CCCNCC1 | 6.72 |

The next lines start with the values.

| pIC50 | Structure (SMILES) |
| --- | --- |
| < 6.00 | COC(=O)C1CCN(Cc2ccn3ncnc(Nc4ccc5c(cnn5Cc5cccc(F)c5)c4)c23)CC1 |
| 6.89 | Cc1cn2ncnc(Nc3ccc4c(cnn4Cc4cccc(F)c4)c3)c2c1CN1CCCNCC1 |

Molecular target: EGFR (human) (UniProt P00533)
Assay: not given
Conditions: not given
Remark: another data set of the same source

| Structure (SMILES) | pIC50 |
| --- | --- |
| COc1cc2ncnc(Nc3ccc(F)c(Cl)c3)c2cc1O[C@H]1CC[C@H](NC(=O)N2CCOCC2)CC1 | 9.52 |
| COc1cc2ncnc(Nc3ccc(F)c(Cl)c3)c2cc1O[C@H]1CC[C@H](NS(=O)(=O)N(C)C)CC1 | 9.00 |

Other lines, results leading:

| pIC50 | Structure (SMILES) |
| --- | --- |
| 9.89 | COc1cc2ncnc(Nc3ccc(F)c(Cl)c3)c2cc1O[C@H]1CCOC1 |
| 10.00 | CC.COc1cc2ncnc(Nc3ccc(F)c(Cl)c3)c2cc1OC1CCN(S(=O)(=O)N2CCOCC2)CC1 |
| 9.40 | COc1cc2ncnc(Nc3ccc(F)c(Cl)c3)c2cc1O[C@H]1CC[C@H](NS(=O)(=O)N2CCOCC2)CC1 |

Molecular target: EGFR (Human), P00533 [T790M/L858R]
Assay: not given
Conditions: not given

EGFR (Human), P00533 [T790M/L858R], sequence (P00533 whole entry T790M/L858R, looked up): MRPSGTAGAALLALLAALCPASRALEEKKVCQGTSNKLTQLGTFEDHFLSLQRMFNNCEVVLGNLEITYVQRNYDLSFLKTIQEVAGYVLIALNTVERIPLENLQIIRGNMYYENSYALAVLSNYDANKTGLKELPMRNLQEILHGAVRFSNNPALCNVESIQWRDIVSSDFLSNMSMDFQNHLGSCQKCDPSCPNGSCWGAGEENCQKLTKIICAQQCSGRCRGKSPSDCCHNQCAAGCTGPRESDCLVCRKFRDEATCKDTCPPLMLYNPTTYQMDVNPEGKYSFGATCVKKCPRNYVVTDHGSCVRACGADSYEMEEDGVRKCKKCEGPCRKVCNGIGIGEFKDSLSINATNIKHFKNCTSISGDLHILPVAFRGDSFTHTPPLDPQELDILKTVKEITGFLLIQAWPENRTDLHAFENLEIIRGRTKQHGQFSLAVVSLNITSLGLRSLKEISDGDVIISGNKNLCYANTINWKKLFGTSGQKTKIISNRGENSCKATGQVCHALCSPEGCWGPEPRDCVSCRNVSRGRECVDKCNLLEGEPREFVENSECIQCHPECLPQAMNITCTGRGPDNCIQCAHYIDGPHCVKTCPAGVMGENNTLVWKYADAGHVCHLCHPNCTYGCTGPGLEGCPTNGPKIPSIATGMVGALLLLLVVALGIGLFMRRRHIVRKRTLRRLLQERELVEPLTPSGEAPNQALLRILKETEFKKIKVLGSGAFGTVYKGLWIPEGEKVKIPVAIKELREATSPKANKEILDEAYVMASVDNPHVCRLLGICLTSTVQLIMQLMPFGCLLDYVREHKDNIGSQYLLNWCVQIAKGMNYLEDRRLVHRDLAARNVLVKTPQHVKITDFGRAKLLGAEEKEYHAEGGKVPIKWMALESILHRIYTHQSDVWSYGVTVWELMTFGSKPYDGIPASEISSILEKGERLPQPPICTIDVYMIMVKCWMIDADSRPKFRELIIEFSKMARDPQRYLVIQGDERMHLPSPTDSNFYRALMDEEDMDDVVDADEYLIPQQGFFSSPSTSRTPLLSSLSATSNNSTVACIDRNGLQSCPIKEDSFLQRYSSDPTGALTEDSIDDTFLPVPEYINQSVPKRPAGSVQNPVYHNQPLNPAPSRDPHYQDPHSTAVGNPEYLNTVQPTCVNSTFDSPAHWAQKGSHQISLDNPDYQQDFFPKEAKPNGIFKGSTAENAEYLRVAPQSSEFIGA

| Structure (SMILES) | pIC50 |
| --- | --- |
| C=CC(=O)Nc1ccc(F)c(Nc2nc(Nc3cn(C)nc3C)ncc2Cl)c1 | > 8.00 |
| C=CC(=O)N[C@H]1CCC[C@@H](Nc2nc(Nc3cnn(C)c3)ncc2Cl)C1 | 7.00 to 8.00 |
| C=CC(=O)N[C@@H]1CCCC[C@H](Nc2nc(Nc3cnn(C)c3)ncc2Cl)C1 | 7.00 to 8.00 |

Continued, values first:

| pIC50 | Structure (SMILES) |
| --- | --- |
| 7.00 to 8.00 | C=CC(=O)Nc1cccc(Nc2nc(NCc3cnn(C)c3)ncc2Cl)c1 |
| 7.00 to 8.00 | C=CC(=O)Nc1cccc(Nc2nc(Nc3cn(C)nc3C)ncc2Cl)n1 |

Source: the Kinase Knowledgebase extract (Sharma et al. 2016)
